Results from patent US7625887B2, “Receptor agonists” (Takeda Pharmaceutical Company Limited, priority 2003, dated 2009).
Blank lines part the entries; values can stand above or below the compound they belong to.

Columns and labels:
[1] = target: T1, human TGR5 (Homo sapiens, UniProt Q8TDU6); assay: cAMP production increasing activity in human TGR5 expressing CHO cells; type: cell-based; details: test compound 1 μM, 30 min; 1 μM lithocholic acid = 100%, no addition = 0%; average of 3 groups
T1 construct: expressed in transfected cells; host or cells: CHO cells
T1 sequence (Q8TDU6 1-330): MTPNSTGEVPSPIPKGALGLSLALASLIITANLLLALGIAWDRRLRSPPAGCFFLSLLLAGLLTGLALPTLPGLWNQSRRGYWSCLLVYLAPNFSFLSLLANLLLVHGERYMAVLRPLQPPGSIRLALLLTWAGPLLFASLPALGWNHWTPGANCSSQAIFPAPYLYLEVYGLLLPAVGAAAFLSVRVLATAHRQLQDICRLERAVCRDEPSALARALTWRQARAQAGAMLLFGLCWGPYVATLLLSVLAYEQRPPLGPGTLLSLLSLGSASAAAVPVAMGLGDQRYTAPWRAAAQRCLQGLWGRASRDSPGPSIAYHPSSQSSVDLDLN
Experimental: As the assay buffer, Hank's balanced salt solution (HBSS, Invitrogen) supplemented with 0.1% bovine serum albumin (BSA, Sigma) and 0.5 mM 3-isobutyl-1-methylxanthine (IBMX, Sigma) was used. A test compound sample (1 μM) diluted with the assay buffer was added to the cells. The cells were incubated at 37° C. for 30 min. and the supernatant was suctioned. The intracellular cAMP amount increased by the stimulation of the test compound was quantitatively determined using a HitHunter™ EFC Cyclic AMP Chemiluminescence Assay Kit (ABI) kit.

[2] = test system: THP-TGR5 cells; assay: suppression of LPS induced TNF α secretion in THP-TGR5 cells; type: cell-based, human; details: non-addition: 11 with LPS, 2.7 without LPS
Experimental: TGR5 high expression cells were established by introducing TGR5 gene into human macrophage cells line THP-1. According to a conventional method, pcDNA-TGR5 incorporating cDNA of human TGR5 in pcDNA3.1 (Invitrogen) was prepared. Then, THP-1 was cultured in a medium (RPMI1640 10% FBS), and pcDNA-TGR5 was introduced thereinto using lipofectamine (Gibco BRL) according to conventional methods. Thereafter, G418 (Gibco BRL) was added to the medium to select resistant strains, and cells line, THP-TGR5 that expresses TGR5 stably and highly was established.
THP-TGR5 thus obtained was diluted to a concentration of 1×10^5/well and cultured overnight in a 96 well plate in the presence of 10^−8M phorbol ester (Wako Pure Chemical Industries, Ltd.). THP-TGR5 after culture was cultured for 1 hr in a medium containing a test compound or a control medium (0.1 ml) free of a test compound, 0.1 ml of a medium containing the same concentration of the test compound or a control medium free of the test compound, each of which containing LPS for induction of TNF α secretion was added (concentration at the time of addition 50 ng/ml) and the mixture was incubated at 37° C. under 5% CO2 for 14 hrs. The culture supernatant was collected and the TNF α content was measured with the growth suppressing effect on the TNF sensitive cell line L929 (RIKEN Institute) as an index.
L929 cells were seeded in a 96 well plate at 1.2×10^4/well and incubated overnight at 37° C. under 5% CO2. The obtained culture product was cultured overnight in a medium (phenol red free Dulbecco's Modified Eagle Medium (Invitrogen) supplemented with 10% fetal bovine serum (Invitrogen), 100 U/ml penicillin and 100 μg/ml streptomycin), which contained the aforementioned THP-TGR5-containing culture supernatant and 2 μg/ml Actinomycin D (Wako Pure Chemical Industries, Ltd.). The TNF α content was determined by measuring the growth of the L929 cells in the obtained culture product using a Cell Counting Kit-8 (Wako Pure Chemical Industries, Ltd.). As the standard sample, human recombinant TNF α (Genzyme) was used.

[3] = target: T2, rat TGR5 (Rattus norvegicus, UniProt Q80T02); assay: cAMP production increasing activity in rat type TGR5 expressing CHO cells; type: cell-based; details: 0.5 h, read-out: cAMP producing activity (control %)
T2 construct: expressed in transfected cells; host or cells: CHO cells
T2 sequence (Q80T02 1-329): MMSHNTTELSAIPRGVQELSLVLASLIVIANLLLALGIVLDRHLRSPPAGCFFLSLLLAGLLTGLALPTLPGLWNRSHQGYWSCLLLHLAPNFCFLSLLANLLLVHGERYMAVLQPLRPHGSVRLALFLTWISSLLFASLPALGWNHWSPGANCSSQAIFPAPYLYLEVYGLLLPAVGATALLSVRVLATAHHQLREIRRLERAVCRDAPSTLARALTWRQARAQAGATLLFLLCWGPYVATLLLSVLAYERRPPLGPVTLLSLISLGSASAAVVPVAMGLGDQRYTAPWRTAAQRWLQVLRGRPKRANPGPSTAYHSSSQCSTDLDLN
Experimental: (§1) After culture, the cells were detached with 0.5 mM EDTA/PBS, washed with PBS, and suspended in Buffer 1 (HBSS+0.1% BSA, 25 mM HEPES pH 7.3, 0.5 mM IBMX) at a density of 1×10^7 cells/ml. The obtained cell suspension (460 μl), anti-cAMP acceptor beads (23 μl) of AlphaScreen cAMP assay kit (Perkin Elmer) and Buffer 1 (667 μl) were mixed and dispensed to a white 96 well plate (Costar) by 10 μl. Then, a test compound diluted with Buffer 1 was added to each well by 10 μl. At this time, one row of the plate was free of the cell suspension but added with anti-cAMP acceptor beads (9 μl) and Buffer 1 (441 μl) alone, and serial dilutions of cAMP were added instead of the test compound and used as the standard. A mixture of the cell suspension and the test compound contained in the plate was allowed to react at room temperature for 30 min. […] The plate was shaken at room temperature for 2.5 hrs and fluorescence intensity was measured by Fusion α (Parkin Elmer), and the cAMP concentration of each well was calculated using the cAMP standard on each plate.

[4] = test system: NCI-H716 cells; assay: intracellular cAMP production increasing action in NCI-H716 cells; type: cell-based, human; details: 2 hrs, production amount in TLCA (50 μM) was 100%, Base 11
Experimental: NCI-H716 (ATCC) was suspended in a medium (Dulbecco's Modified Eagle Medium (DMEM, Invitrogen) supplemented with 10% fetal bovine serum (Invitrogen), 100 U/ml penicillin and 100 μg/ml streptomycin), seeded in a 96 well plate, cultured for 2 days and used for cAMP production assay. As a cAMP assay buffer, modified Krebs-Ringer bicarbonate buffer (KRBH, 116 mM NaCl, 4.7 mM KCl, 1.2 mM KH2PO4, 1.2 MM MgSO4, 2.5 mM CaCl2, 25 mM NaHCO3, 24 mM HEPES pH 7.3), supplemented with glucose 5.5 mM, bovine serum albumin (BSA) 0.1%, and 3-isobutyl-1-methylxanthine (IBMX, Sigma) 1 mM, was used. The cells were washed once with cAMP assay buffer. Bile acids (50 μM) diluted with cAMP assay buffer or the compounds of the present invention (10 μM) were added thereto and the cells were incubated for 2 hrs. The culture supernatant was discarded, and the cAMP production amount was measured by cAMP Screen System (ABI). In the Table, Base means non-addition of a test compound.

[5] = test system: guinea pig TGR5; assay: cAMP production increasing activity in guinea pig TGR5 expressing CHO cells; type: cell-based; details: test compound 2 μM; 10 μM lithocholic acid = 100%; average of 3 groups
Experimental: as §1, with “The guinea pig type TGR5 expressing CHO cells were seeded in one 150 cm^2 flask at 1×10^7 cells, and cultured overnight at 37° C., 5% CO2. After” for “After”

[6] = target: T1, human TGR5; assay: cAMP production increasing activity in human TGR5 expressing CHO cells; type: cell-based; details: read-out: EC50 value (concentration necessary to make the cAMP production amount 50%)
[7] = test system: NCI-H716 cells; assay: GLP-1 secretion from NCI-H716 cell line; type: cell-based, human; details: 2 hrs, secretion amount in Base was 100%
Experimental: NCI-H716 cells secrete Glucagon-like peptide-1 (GLP-1). GLP-1 is a peptide useful for controlling blood glucose level because it acts on the pancreas to cause secretion of insulin and the like. In the same manner as in Experimental Example 9, NCI-H716 (ATCC) was seeded in a 96 well plate and, after incubation for 2 days, used for the following secretion test. As a buffer for secretion test, modified Krebs-Ringer bicarbonate buffer (KRBH, 116 mM NaCl, 4.7 mM KCl, 1.2 mM KH2PO4, 1.2 mM MgSO4, 2.5 mM CaCl2, 25 mM NaHCO3, 24 mM HEPES, pH 7.3) supplemented with glucose 5.5 mM and BSA 0.1% was used. The cells were washed once with the buffer for secretion test, preincubated at 37° C. under 5% CO2, bile acid diluted with the buffer for secretion test was added and the cells were cultured at 37° C. under 5% CO2 for 2 hrs. The cell culture supernatant was collected, cryopreserved and the GLP-1 content in the supernatant was measured using a GLP-1 measurement EIA kit (Linco) The results are shown in Table 9. In the Table, Base means non-addition of a test compound.

[8] = test system: mock CHO cells free of human TGR5 expression; assay: cAMP production increasing activity in mock CHO cells free of human TGR5 expression; type: cell-based; details: average of 3 groups
Experimental: As the assay buffer, Hank's balanced salt solution (HBSS, Invitrogen) supplemented with 0.1% bovine serum albumin (BSA, Sigma) and 0.2 mM 3-isobutyl-1-methylxanthine (IBMX, Sigma) was used. The cells were washed twice with the assay buffer and preincubated at 37° C. for 30 min. The cells were washed twice, and test compound samples (10 μM) diluted with the assay buffer to various concentrations were added. The cells were incubated at 37° C. for 20 min. The culture supernatant was discarded, and the cAMP production amount was measured using a cAMP Screen System (ABI).

cAMP production increasing activity (control %) [1]: 85 control %
SMILES: CC(=O)NCc1cccc([C@@H]2O[C@H](CC(=O)NCc3ccccc3F)C(=O)N(CC(C)(C)C)c3ccc(Cl)cc32)c1 (relative stereo) [Reference Example 3, 2-[3,5-trans-5-[3-(acetylaminomethyl)phenyl]-7-chloro-1-neopentyl-2-oxo-1,2,3,5-tetrahydro-4,1-benzoxazepin-3-yl]-N-(2-fluorobenzyl)acetamide]
TNF α ([2]; test compound 10 μM): 0.33 ng/mL

cAMP production increasing activity (control %) [1]: 98 control %
SMILES: COC(=O)NCc1cccc([C@@H]2O[C@H](CC(=O)NCc3ccccc3F)C(=O)N(CC(C)(C)C)c3ccc(Cl)cc32)c1 (relative stereo) [Reference Example 6, methyl [3-[3,5-trans-7-chloro-3-[2-[(2-fluorobenzyl)amino]-2-oxoethyl]-1-neopentyl-2-oxo-1,2,3,5-tetrahydro-4,1-benzoxazepin-5-yl]benzyl]carbamate]
TNF α ([2]; test compound 10 μM): 0.32 ng/mL

SMILES: COC(=O)NCc1cccc(C2OC(CC(=O)NCc3ccccc3F)C(=O)N(CC(C)(C)COC(C)=O)c3ccc(Cl)cc32)c1 (stereo not drawn) [Example 46, 3-[3,5-trans-7-chloro-3-[2-[(2-fluorobenzyl)amino]-2-oxoethyl]-5-[3-(methoxycarbonylaminomethyl)phenyl]-2-oxo-2,3-dihydro-4,1-benzoxazepin-1(5H)-yl]-2,2-dimethylpropyl acetate]
activation at 2 µM [3]: 104%
cAMP production increasing activity (%) ([4]; 10 μM): 112%
cAMP producing activity (control %) [5]: 77 control %
EC50 [6]: < 100 nM
GLP-1 secretion increase (%) ([7]; 5 μM): 165%

SMILES: C=C[C@@]1(C)CC(=O)[C@]2(O)[C@@]3(C)[C@@H](O)CCC(C)(C)[C@@H]3[C@H](O)[C@H](OC(C)=O)[C@@]2(C)O1 [Forskolin, reference compound]
cAMP production increasing activity ([8]; Experimental Example 2, Forskolin 2 μM, Base 0.85): 4.02 pmol
cAMP production increasing activity ([8]; Experimental Example 4, test compounds 2 μM, Base 0.28): 5.68 pmol
cAMP production increasing activity ([8]; Experimental Example 5, test compounds 2 μM, Base 0.19): 3.01 pmol

SMILES: CCOC(=O)CC1C(=O)N(CC(C)(C)C)c2ccccc2CN1C(=O)OC(C)(C)C (stereo not shown) [Reference Example 1B, tert-butyl 3-(2-ethoxy-2-oxoethyl)-1-neopentyl-2-oxo-1,2,3,5-tetrahydro-4H-1,4-benzodiazepine-4-carboxylate]
TNF α ([2]; test compound 10 μM): 0.63 ng/mL

SMILES: C[C@H](CCC(=O)O)[C@H]1CC[C@H]2[C@@H]3CC[C@@H]4C[C@H](O)CC[C@]4(C)[C@H]3CC[C@]12C [lithocholic acid, reference compound]
cAMP production increasing activity (%) ([4]; bile acid 50 μM): 107%
TNF α ([2]; bile acid 50 μM): 1.1 ng/mL
GLP-1 secretion increase (%) ([7]; bile acid 25 μM): 121%
